Common to all, as to test: In vitro killing activity (CellCounting-Lite 2.0, 7 days)
Common to all, as to format: cell-based

The subject of one assay is HCC827 cells. As to conditions: Homo sapiens, 168 h.
A further assay deals with Panc 02.03 cells. Particulars: Homo sapiens, Panc 02.03, 168 h.
The subject of a further assay is NCI-H292 cells. As to conditions: Homo sapiens, 168 h.
For the next assay, the system named is A431 cells. As to conditions: Homo sapiens, A-431, 168 h.

As a reminder, the IC50 is the concentration that inhibits the measured activity by half.

In the case of `CC[C@@]1(O)C(=O)OCc2c1cc1n(c2=O)Cc2c-1nc1ccc(N)c3c1c2CCO3` [CPT2, (S)-4-amino-9-ethyl-9-hydroxy-1,9,12,15-tetrahydro-13H-pyrano[4,3,2-de]pyrano[3′,4′:6,7]indolizino[1,2-b]quinoline-10,13(2H)-dione], the IC50 in the assay on HCC827 cells worked out at 1.69 nM; with Panc 02.03 cells it was 0.981 nM; with NCI-H292 cells it was 0.728 nM; in the assay on A431 cells, 1.38 nM.

(Values after patent publication US20260144883A1, “ANTI-TROP2/EGFR ANTIBODIES AND USES THEREOF” (XADCERA BIOPHARMACEUTICAL (SUZHOU) CO., LTD., priority 2022, published 2026).)
